Reference: US11794009B2, “Devices, systems and methods for treating urological and gastrointestinal disorders by electrical stimulation of the foot” (priority 2014, dated 2023)

Tests used:
[1] = test system: bladder overactivity induced by 0.25% acetic acid (AA) irritation; assay: Cystometrogram (CMG) bladder capacity during 0.25% acetic acid (AA) infusion in anesthetized cats, duloxetine / WAY100635 with and without foot stimulation; type: in vivo, cat
Procedure: Experiments were performed in a total of 8 adult anesthetized cats (5 female and 3 male cats between 3.1-4.4 kg). Each cat was anesthetized with isoflurane (2-3% in O2) during surgery and then changed to α-chloralose (65 mg/kg, supplemented as necessary) anesthesia during data collection. A pulse oximeter (9847V, Nonin Medical Inc., Plymouth, MN, USA) with the sensor attached to the tongue was used to monitor heart rate and blood oxygen saturation. Catheters were inserted in the right cephalic vein and right carotid artery for intravenous infusion of drugs and monitoring systemic blood pressure, respectively. Airway access was secured with a tracheostomy tube. Ureters were accessed through a midline abdominal incision and drained externally. The bladder was then cannulated with a double lumen catheter through a small cut at the proximal urethra to infuse saline or 0.25% AA and simultaneously measure bladder pressure. The proximal urethra was tied to prevent leakage. Fur was removed from the right hind foot and two self-adhesive pad electrodes (Grass FE10ND, Astro-Medical Inc., Mentor, OH, USA; diameter 1 cm) were attached to the skin at the bottom of the foot. One electrode was at the front of the foot and the other was at the heel (Chen G et al. Post-stimulation inhibitory effect on reflex bladder activity induced by activation of somatic afferent nerves in the foot. J Urol 187: 338-343, 2012; Tai C et al. Suppression of bladder overactivity by activation of somatic afferent nerves in the foot. BJU Int 107: 303-309, 2011).
Uniphasic rectangular pulses (5 Hz frequency, 0.2 ms pulsewidth) were delivered to the surface electrodes on the foot. Stimulation intensity threshold (T) was defined as the minimal intensity to induce a toe twitch. […] BJU Int 107: 303-309, 2011). Initially the bladder capacity was determined during cystometrograms (CMGs) by slowly infusing the bladder with saline. Multiple CMGs were performed to ensure reproducibility of the saline control capacity.
Bladder capacity was defined as the bladder volume threshold required to induce a micturition contraction of large amplitude (>30 cm H2O) and long duration (>20 seconds). Then, repeated CMGs were performed with infusion of 0.25% AA to irritate the bladder, activate nociceptive bladder afferent C-fibers, and induce bladder overactivity. When the bladder capacity stabilized, four CMGs were performed with AA infusion (Infusion rate=2 mL/min) prior to the administration of duloxetine: (1) control without stimulation, (2) during 2 T stimulation, (3) during 4 T stimulation, and (4) control without stimulation to determine any post-stimulation effect. The bladder was emptied at the end of each CMG and a 3-5 minute rest period was inserted between CMGs.
After the pre-drug CMGs were performed, increasing cumulative doses (0.003, 0.01, 0.03, 0.1, 0.3, 1, and 3 mg/kg, i.v.) of duloxetine (Selleck Chemicals, Houston, TX) were given to determine the drug effect on bladder capacity. Ten minutes after administering each dose of duloxetine, the four CMGs were again performed with AA infusion under different conditions (control, 2 T stimulation, 4 T stimulation, and post-stimulation control). The four repeated CMGs were completed within 40-60 minutes. In 4 cats 50-70 minutes after giving the maximal dose of duloxetine (3 mg/kg), WAY100635 (Sigma-Aldrich, St. Louis, MO), a 5HT1A antagonist, was administered (0.5 mg/kg, i.v.) to block 5HT1A inhibitory autoreceptors on serotonergic neurons in the raphe nucleus in an attempt to enhance the serotonergic inhibitory influence of duloxetine on bladder reflexes. Five minutes after administration of WAY100635, we performed control CMGs without stimulation to examine the combined effect of WAY100635 and duloxetine on bladder capacity.
For each CMG, bladder capacity was normalized to the initial saline control capacity in the same animal, which allowed for comparisons between animals.

[2] = test system: bladder overactivity induced by 0.25% acetic acid (AA) irritation; details: 0.5168 mg/kg dose alone (references 20, 31, 36); cited from earlier work
[3] = test system: bladder overactivity induced by 0.25% acetic acid (AA) irritation; assay: Cystometrogram (CMG) bladder capacity during 0.25% acetic acid (AA) infusion in anesthetized cats, tolterodine with and without foot stimulation; type: in vivo, cat; details: for bladder capacity: AA infusion
Procedure: Experiments were conducted in a total of 6 adult cats (4 female and 2 male cats between 2.8-3.8 kg) under achloralose anesthesia (65 mg/kg, supplemented as necessary) after induction with isoflurane (2-3% in O2). Heart rate and blood oxygen level were monitored with a pulse oximeter (9847 V, Nonin Medical Inc., Plymouth, MN, USA) that was attached to the tongue. Systemic blood pressure was monitored via a catheter in the right carotid artery. These physiological parameters were monitored to ensure that the animal's vital functions remained relatively stable during the entire experiment. Drugs or fluids were administered through a catheter in the right cephalic vein and airway access was secured with a tracheostomy tube. Ureters were accessed through a midline abdominal incision and drained externally. The bladder was cannulated through the urethra with a double lumen catheter to infuse (1-2 ml/min) saline or 0.25% acetic acid (AA) via one lumen and measure bladder pressure via another lumen. A ligature was tied around the proximal urethra to prevent leakage. Fur was removed from the foot and two self-adhesive pad electrode (Grass FE10ND, Astro-Medical Inc., Mentor, OH, USA; diameter 1 cm) were attached to the skin at the bottom of the left hind foot. One electrode was at the front of the foot and the other was at the heel.
Uniphasic rectangular pulses (5 Hz frequency, 0.2 ms pulsewidth) were delivered to the skin electrodes on the foot. Threshold (T) stimulation intensity (3-16 V), which was defined as the minimal intensity to induce an observable toe twitch, was determined by slowly increasing the stimulation intensity at the beginning of the experiment. […] The initial bladder capacity was determined during a cystometrogram (CMG) by slowly infusing the bladder with saline. Bladder capacity was defined as the bladder volume threshold to induce a bladder reflex contraction of large amplitude (>30 cm H2O) and long duration (>20 seconds).
Multiple CMGs were performed to determine reproducibility of the saline control capacity. Then, repeated CMGs were performed with AA infusion to irritate the bladder, activate nociceptive bladder C-fiber afferents, and induce bladder overactivity. Once the irritated bladder capacity was stabilized, four CMGs were performed prior to drug administration: 1. control CMG without stimulation; 2. CMG during 2 T stimulation; 3. CMG during 4 T stimulation; and 4. control CMG without stimulation to determine any post-stimulation effect. Increasing cumulative doses of tolterodine (tolterodine L-tartrate, Tocris Bioscience, Bristol, UK) were then administered (0.003, 0.01, 0.03, 0.1, and 0.3 mg/kg, i.v.). Ten minutes after administering each dose of tolterodine, the CMGs were performed again under the four different conditions (control, 2 T stimulation, 4 T stimulation, and post-stimulation control) to determine the drug effect on bladder capacity. The bladder was emptied after each CMG followed by a 3-5 min rest period to allow the distended detrusor to recover.
For the repeated CMG recordings, bladder capacity was normalized to the initial saline control capacity in the same animal to allow comparisons between animals. Capacity measurements under the same conditions were averaged and reported as mean±standard error of the mean (SEM). The mean amplitude of the bladder reflex contraction was also measured during each CMG and normalized to the AA control CMG to determine the effect of tolterodine on detrusor contractility. Statistical significance (p<0.05) was detected by ANOVA followed by Dunnett or Bonferroni post-tests.

SMILES: COc1ccccc1N1CCN(CCN(C(=O)C2CCCCC2)c2ccccn2)CC1 [WAY100635]
- bladder capacity ([1]; WAY100635 0.5168 mg/kg i.v. after final 3 mg/kg dose of duloxetine, no stimulation, N=4 cats, p=0.008): 162.2±22.5 % of saline control
- effect of WAY100635 alone on bladder capacity [2]: does not affect bladder capacity

SMILES: CNCC[C@H](Oc1cccc2ccccc12)c1cccs1 [duloxetine]
- effect on AA-induced overactivity ([1]; 3 mg/kg i.v., absence of stimulation): completely removed AA-induced overactivity
- post-stimulation effect on bladder capacity ([1]; after 2 T and 4 T stimulation in duloxetine treated animals): absence of a post-stimulation effect
- effect of foot stimulation on capacity when combined with duloxetine ([1]; after doses 0.003 mg/kg to 0.03 mg/kg i.v.): significantly (p<0.05) increased capacity
- effect of foot stimulation on capacity when combined with duloxetine ([1]; after doses between 0.1 mg/kg and 3 mg/kg i.v.): did not significantly increase capacity
- bladder capacity ([1]; after final 3 mg/kg dose of duloxetine, before WAY100635, no stimulation, N=4 cats): 117.3±17.6 % of saline control
- effect on bladder capacity during AA infusion ([1]; doses 0.1-3 mg/kg i.v., absence of stimulation): dose-dependently and significantly (p<0.05) increased bladder capacity
- bladder capacity ([1]; duloxetine 3 mg/kg i.v. (cumulative), AA infusion, absence of stimulation, N=8 cats): 109±15.5 % of saline control
- bladder capacity ([1]; duloxetine 3 mg/kg i.v., AA infusion, during 2 T foot stimulation (5 Hz, 0.2 ms)): 129.3±23.2 % of saline control
- bladder capacity ([1]; duloxetine 3 mg/kg i.v., AA infusion, during 4 T foot stimulation (5 Hz, 0.2 ms)): 129.2±25.8 % of saline control

SMILES: Cc1ccc(O)c([C@H](CCN(C(C)C)C(C)C)c2ccccc2)c1 [tolterodine]
- effect on control bladder capacity ([3]; 0.1 mg/kg i.v., absence of stimulation): not effective in significantly increasing control bladder capacity
- amplitude of bladder reflex contractions ([3]; 0.003-0.3 mg/kg i.v., control, 2 T or 4 T foot stimulation CMGs): did not alter the amplitude of bladder reflex contractions
- total inhibitory effect of tolterodine combined with foot stimulation ([3]; 2 T and 4 T foot stimulation, every dosage): additive
- post-stimulation effect on bladder capacity ([3]; after 2 T and 4 T stimulation, every dose of tolterodine): no post-stimulation effect was observed
- effect on bladder capacity during AA infusion CMGs ([3]; cumulative doses 0.003-0.3 mg/kg i.v., absence of foot stimulation): increased bladder capacity dose dependently
- bladder capacity ([3]; tolterodine 0.1 mg/kg i.v., 4 T foot stimulation): 97.0±11.2 % of saline control
- bladder capacity ([3]; tolterodine 0.3 mg/kg i.v. (cumulative), absence of foot stimulation, N=6 cats): 65.6±15.5 % of the saline control capacity
- bladder capacity ([3]; tolterodine 0.3 mg/kg i.v., 2 T foot stimulation): 86.2±6.2 % of the saline control
- bladder capacity ([3]; tolterodine 0.3 mg/kg i.v., 4 T foot stimulation): 107.9±10.6 % of the saline control
- threshold pressure for inducing a micturition reflex ([3]; tolterodine 0.3 mg/kg i.v., 5.0±1.3 cm H2O before treatment): 8.1±1.4 cm H2O
